Results published in PubChem BioAssay AID248 (DTP/NCI, 2004).
Toxic doses and inconclusive results are not listed. Cut-off read from the data, not from the text of the source: active = T/C of 150% or more; inactive = T/C below 125%.

Tested on: L1210 leukemia ip in BDF1 mice, survival T/C
Experiment: NCI In Vivo Anticancer Drug Screen. Data for tumor model L1210 Leukemia (intraperitoneal) in B6D2F1 (BDF1) mice
Conditions: endpoint: mean survival time, higher = longer survival
How it was run: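 Tumor cells were implanted, animals were treated, and survival was followed. The result divides the treated measurement by the vehicle-control measurement.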

[1] = dose: 25.0 mg/kg/injection, schedule: Q01DX009 (ip), vehicle: saline
[2] = dose: 25.0 mg/kg/injection, schedule: Q04DX003 (ip), vehicle: saline
[3] = dose: 50.0 mg/kg/injection, schedule: Q01DX009 (ip), vehicle: saline
[4] = dose: 50.0 mg/kg/injection, schedule: Q04DX003 (ip), vehicle: saline
[5] = dose: 100.0 mg/kg/injection, schedule: Q01DX009 (ip), vehicle: saline
[6] = dose: 100.0 mg/kg/injection, schedule: Q04DX003 (ip), vehicle: saline
[7] = dose: 200.0 mg/kg/injection, schedule: Q01DX009 (ip), vehicle: saline
[8] = dose: 200.0 mg/kg/injection, schedule: Q04DX003 (ip), vehicle: saline
[9] = dose: 400.0 mg/kg/injection, schedule: Q01DX009 (ip), vehicle: saline
[10] = dose: 400.0 mg/kg/injection, schedule: Q04DX003 (ip), vehicle: saline
[11] = dose: 100.0 mg/kg/injection, schedule: Q01DX001 (ip), vehicle: Klucel (hydroxypropylcellulose) (HPC)
[12] = dose: 100.0 mg/kg/injection, schedule: Q04DX003 (ip), vehicle: Klucel (hydroxypropylcellulose) (HPC)
[13] = dose: 200.0 mg/kg/injection, schedule: Q04DX003 (ip), vehicle: Klucel (hydroxypropylcellulose) (HPC)
[14] = dose: 100.0 mg/kg/injection, schedule: Q04DX002 (ip), vehicle: Klucel (hydroxypropylcellulose) (HPC)
[15] = dose: 200.0 mg/kg/injection, schedule: Q04DX002 (ip), vehicle: Klucel (hydroxypropylcellulose) (HPC)
[16] = dose: 400.0 mg/kg/injection, schedule: Q04DX002 (ip), vehicle: Klucel (hydroxypropylcellulose) (HPC)
[17] = dose: 100.0 mg/kg/injection, schedule: Q01DX009 (ip), vehicle: Klucel (hydroxypropylcellulose) (HPC)
[18] = dose: 100.0 mg/kg/injection, schedule: Q01DX001 (ip), vehicle: other
[19] = dose: 200.0 mg/kg/injection, schedule: Q01DX001 (ip), vehicle: other
[20] = dose: 400.0 mg/kg/injection, schedule: Q01DX001 (ip), vehicle: other
[21] = dose: 400.0 mg/kg/injection, schedule: Q04DX003 (ip), vehicle: Klucel (hydroxypropylcellulose) (HPC)
[22] = dose: 100.0 mg/kg/injection, schedule: Q01DX001 (ip), vehicle: saline

Measured: T/C

CC(C)C1(C(C)C)OCC(CO)O1 (centres undefined)
inactive: [1] 93 % of control | [2] 100 % of control | [3] 102 % of control | [4] 94 % of control | [5] 104 % of control | [6] 94 % of control | [7] 102 % of control | [8] 102 % of control | [9] 104 % of control | [10] 100 % of control

CC1(C)N=C(N)N=C(N)N1c1cccc(OCCCc2ccccc2)c1
inactive: dose: 25.0 mg/kg/injection, schedule: Q01DX001 (ip), vehicle: Klucel (hydroxypropylcellulose) (HPC) 86 % of control | dose: 50.0 mg/kg/injection, schedule: Q01DX001 (ip), vehicle: Klucel (hydroxypropylcellulose) (HPC) 86 % of control | [11] 91 % of control

CC(C)C(=O)[O][Sn]([c]1ccccc1)([c]1ccccc1)[c]1ccccc1
inactive: dose: 12.5 mg/kg/injection, schedule: Q04DX002 (ip), vehicle: Klucel (hydroxypropylcellulose) (HPC) 97 % of control | dose: 25.0 mg/kg/injection, schedule: Q04DX002 (ip), vehicle: Klucel (hydroxypropylcellulose) (HPC) 93 % of control | dose: 50.0 mg/kg/injection, schedule: Q04DX002 (ip), vehicle: Klucel (hydroxypropylcellulose) (HPC) 93 % of control

CC(C)NNC(=O)C(N)CCC(=O)O (centres undefined)
inactive: [1] 105 % of control | [2] 117 % of control | [3] 91 % of control | [4] 107 % of control | [5] 98 % of control | [6] 91 % of control | [7] 109 % of control | [8] 90 % of control | [9] 118 % of control | [10] 98 % of control

NC(=O)c1ccc[n+](CCc2nc(N)c3[nH]cnc3n2)c1
inactive: [4] 97 % of control | [6] 97 % of control | [8] 103 % of control

COC(=O)C1C2CC(=O)C(C2)C1C(=O)OC (centres undefined)
inactive: [5] 96 % of control | dose: 100.0 mg/kg/injection, schedule: Q04DX003 (ip), vehicle: saline with Tween-80 98 % of control | [6] 100 % of control | [7] 105 % of control | dose: 200.0 mg/kg/injection, schedule: Q04DX003 (ip), vehicle: saline with Tween-80 86 % of control | [8] 100 % of control | [9] 99 % of control | dose: 400.0 mg/kg/injection, schedule: Q04DX003 (ip), vehicle: saline with Tween-80 91 % of control | [10] 96 % of control

OC(c1cc(Nc2ccc(Cl)cc2)nc2ccccc12)C1CCCCN1 (centres undefined)
inactive: [12] 95 % of control | [13] 101 % of control

COC1OC2COc3ccccc3OC2C2C1N2C(N)=O (centres undefined)
inactive: [14] 104 % of control | [15] 96 % of control | [16] 100 % of control

O=C(NCCCCCCNC(=O)Nc1ccccc1F)Nc1ccccc1F
inactive: [17] 100 % of control | dose: 200.0 mg/kg/injection, schedule: Q01DX009 (ip), vehicle: Klucel (hydroxypropylcellulose) (HPC) 89 % of control | dose: 400.0 mg/kg/injection, schedule: Q01DX009 (ip), vehicle: Klucel (hydroxypropylcellulose) (HPC) 92 % of control

O=C1NC(=S)S/C1=C/c1ccco1
inactive: [14] 105 % of control | [15] 98 % of control | [16] 105 % of control

N=C(N)c1cccc(CCCCc2ccc(N)cc2)c1
inactive: [12] 94 % of control | [13] 99 % of control

CC(=O)N(CC#CCN(C(C)=O)c1ccccc1)c1ccccc1
inactive: dose: 100.0 mg/kg/injection, schedule: Q04DX002 (ip), vehicle: other 111 % of control | dose: 200.0 mg/kg/injection, schedule: Q04DX002 (ip), vehicle: other 105 % of control | dose: 400.0 mg/kg/injection, schedule: Q04DX002 (ip), vehicle: other 97 % of control

C/C=C1/CN2CCC1CC2C(O)c1ccnc2ccc(O)cc12 (centres undefined)
inactive: dose: 75.0 mg/kg/injection, schedule: Q01DX001 (ip), vehicle: saline 101 % of control

Clc1ccc(SCC#CCOc2ccc(Cl)cc2Cl)cc1
inactive: [11] 89 % of control | dose: 200.0 mg/kg/injection, schedule: Q01DX001 (ip), vehicle: Klucel (hydroxypropylcellulose) (HPC) 95 % of control | dose: 400.0 mg/kg/injection, schedule: Q01DX001 (ip), vehicle: Klucel (hydroxypropylcellulose) (HPC) 97 % of control

O=S(=O)(Nc1ncccn1)c1ccc(N=NSC2=NC=NC3=NC=NC32)cc1 (centres undefined)
inactive: [18] 104 % of control | [19] 124 % of control | [20] 106 % of control

CC1(CCC(=O)O)SCSCS1
inactive: [12] 97 % of control | [13] 90 % of control | [21] 92 % of control

CCCCNC(=O)NC(C)c1ccccc1 (centres undefined)
inactive: [14] 112 % of control | [15] 112 % of control | [16] 105 % of control

COc1cc([N+](=O)[O-])cc2c(C)cc(=O)[nH]c12
inactive: [22] 95 % of control | [5] 103 % of control | dose: 200.0 mg/kg/injection, schedule: Q01DX001 (ip), vehicle: saline 99 % of control | [7] 92 % of control | dose: 400.0 mg/kg/injection, schedule: Q01DX001 (ip), vehicle: saline 93 % of control | [9] 93 % of control

CC(C)(C)OC(=O)N1C2C=CC(C2)N1C(=O)OC(C)(C)C
inactive: [18] 101 % of control | [12] 102 % of control | [19] 104 % of control | [13] 98 % of control | [20] 96 % of control | [21] 109 % of control

O=C(O)c1ccc(NCc2cccc(N=Cc3ccccc3)c2)cc1
inactive: dose: 100.0 mg/kg/injection, schedule: Q01DX001 (ip), vehicle: saline with Tween-80 93 % of control | dose: 200.0 mg/kg/injection, schedule: Q01DX001 (ip), vehicle: saline with Tween-80 93 % of control | dose: 400.0 mg/kg/injection, schedule: Q01DX001 (ip), vehicle: saline with Tween-80 103 % of control

COc1cc2c(cc1OC)C(CCCCCCCC1NCCc3cc(OC)c(OC)cc31)NCC2 (centres undefined)
inactive: dose: 0.25 mg/kg/injection, schedule: Q01DX015 (ip), vehicle: saline 97 % of control | dose: 0.5 mg/kg/injection, schedule: Q01DX015 (ip), vehicle: saline 100 % of control | dose: 1.0 mg/kg/injection, schedule: Q01DX015 (ip), vehicle: saline 103 % of control | dose: 2.0 mg/kg/injection, schedule: Q01DX015 (ip), vehicle: saline 102 % of control | dose: 4.0 mg/kg/injection, schedule: Q01DX015 (ip), vehicle: saline 106 % of control | dose: 8.0 mg/kg/injection, schedule: Q01DX015 (ip), vehicle: carboxymethylcellulose (CMC) 91 % of control | dose: 16.0 mg/kg/injection, schedule: Q01DX015 (ip), vehicle: carboxymethylcellulose (CMC) 91 % of control | dose: 50.0 mg/kg/injection, schedule: Q01DX001 (ip), vehicle: saline 101 % of control | [22] 100 % of control

CC(=O)OC12C(=O)OC(=O)C1(C)C1c3ccccc3C2c2ccccc21 (centres undefined)
inactive: dose: 25.0 mg/kg/injection, schedule: Q01DX009 (ip), vehicle: Klucel (hydroxypropylcellulose) (HPC) 111 % of control | dose: 50.0 mg/kg/injection, schedule: Q01DX009 (ip), vehicle: Klucel (hydroxypropylcellulose) (HPC) 106 % of control | [17] 98 % of control
